{"source": "patent US20250311759A1", "about": "“ORGANIC COMPOUNDS” (GIVAUDAN SA, priority 2022, published 2025)", "assay_type_in_all_cases": "in vivo", "key": {"[1]": {"tested_on": "sensory panel", "experiment": "Salt enhancement in aqueous NaCl solution, sensory panel", "conditions": "for taste description versus 0.5% NaCl solution: 50 ppm in 0.5% NaCl", "from_the_text": "Two aqueous solutions have been prepared: • A) 0.3% NaCl, and • B) 0.3% NaCl and 100 ppm of 1H-imidazole.\nThe solutions were tasted by a sensory panel. Solution A was described as “salty”.\nTwo aqueous solutions have been prepared: • A) 0.5% NaCl, and • B) 0.5% NaCl and 50 of ppm of 4-methyl-1H-imidazole.\nThe solutions were tasted by a sensory panel. Solution A was described as “salty”. Solution B was described as more salty in comparison to solution A.\nTwo aqueous solutions have been prepared: • A) 0.5% NaCl, and • B) 0.5% NaCl and 50 ppm of (2E)-3-(1H-imidazol-4-yl)prop-2-enoic acid (urocanic acid).\nThe following aqueous solutions have been prepared: • A) 0.3% NaCl, • B) 0.3% NaCl and 90 ppm of 2-(1H-imidazol-4-yl)acetic acid, and • C) 0.3% NaCl and 80 ppm of benzimidazole. • The solutions were tasted by a sensory panel. Solution A was described as “salty”."}, "[2]": {"tested_on": "sensory panel", "experiment": "Effect on commercially available mayonnaise, sensory panel", "conditions": "70 ppm in mayonnaise", "from_the_text": "Samples of commercially available mayonnaise with and without addition of 1H-imidazole have been compared by a sensory panel.\nSamples of commercially available mayonnaise with addition of 2-(1H-imidazol-4-yl)acetic acid or benzimidazole and without have been compared by a sensory panel."}, "[3]": {"tested_on": "sensory panel", "experiment": "Effect on model broth base, sensory panel", "from_the_text": "A model broth base, comprising 0.3% of NaCl was compared with a sample further comprising 100 ppm of 1H-imidazole.\n(§1) The solutions were tasted by a sensory panel.\nA model broth base, comprising 0.3% of NaCl was compared with a sample further comprising 70 ppm of 2-(1H-imidazol-4-yl)acetic acid, and 100 ppm of benzimidazole, respectively.\nThe solutions were tasted by a sensory panel. […] The solution comprising benzimidazole was preferred."}, "[4]": {"tested_on": "sensory panel", "experiment": "Effect on commercially available ketchup, sensory panel", "from_the_text": "Samples of commercially available ketchup with and without addition of 2-(1H-imidazol-4-yl)acetic acid or benzimidazole have been compared by a sensory panel."}, "[5]": {"tested_on": "sensory panel", "experiment": "Bitter masking in aqueous KCl solution, sensory panel", "from_the_text": "Two aqueous solutions have been prepared: • A) 0.3% KCl, and • B) 0.3% KCl and 70 ppm of 1H-imidazole.\nas §1\nThe following aqueous solutions have been prepared: • A) 0.3% KCl, and • B) 0.3% KCl and 100 ppm of 2-(1H-imidazol-4-yl)acetic acid, and • C) 0.3% KCl and 100 ppm of benzimidazole."}, "[6]": {"tested_on": "sensory panel", "experiment": "Effect on corn curls with cheese flavor, sensory panel", "from_the_text": "Corn curls with cheese flavor with and without addition of 1H-imidazole have been compared by a sensory panel.\nCorn curls with cheese flavor with addition of 2-(1H-imidazol-4-yl)acetic acid or benzimidazole and without have been compared by a sensory panel."}, "[7]": {"tested_on": "sensory panel", "experiment": "Effect on commercially available cheese sauce, sensory panel", "from_the_text": "The effect of 1H-imidazole on a commercially available cheese sauce was explored.\nTherefore, a cheese sauce has been compared by a sensory panel with a sample of the sauce further comprising 70 ppm of 1H-imidazole.\nThe effect of 2-(1H-imidazol-4-yl)acetic acid on a commercially available cheese sauce was explored. Therefore, a cheese sauce has been compared by a sensory panel with a sample of the sauce further comprising 50 ppm of 2-(1H-imidazol-4-yl)acetic acid."}, "[8]": {"tested_on": "sensory panel", "experiment": "Effect on potato chips, sensory panel", "conditions": "70 ppm, potato chips with 1.5% salt", "from_the_text": "Potato chips with 1.5% salt have been tasted by a sensory panel with and without 1H-imidazole."}, "[9]": {"tested_on": "sensory panel", "experiment": "Effect on soy based vegan burger, sensory panel", "conditions": "70 ppm in soy based vegan burger; initial peak and last phase of salt perception", "from_the_text": "Soy based vegan burgers with and without 1H-imidazole have been tasted by a sensory panel."}, "[10]": {"tested_on": "sensory panel", "experiment": "Umami enhancement in savoury model solution (NaCl, MSG, Ribotides), sensory panel", "conditions": "100 ppm in 0.5% NaCl, 0.03% MSG, 0.007% Ribotides", "from_the_text": "Two aqueous solutions have been prepared: • A) 0.5% NaCl, 0.03% MSG, 0.007% Ribotides, and • B) 0.5% NaCl, 0.03% MSG, 0.007% Ribotides and 100 ppm of 1H-imidazole.\nThe solutions were tasted by a sensory panel. Solution A is a model solution for savoury taste, containing MSG (monosodium glutamate) and Ribotides (IMP/GMP, 50/50 mixture) as savoury taste enhancer."}, "[11]": {"conditions": "100 ppm in model broth base comprising 0.3% NaCl"}, "[12]": {"conditions": "150 ppm on corn curls with cheese flavor"}}}
{"compound": "O=C(O)/C=C/c1c[nH]cn1", "note": "[urocanic acid, (2E)-3-(1H-imidazol-4-yl)prop-2-enoic acid]", "values": [{"measurement": "taste description versus 0.5% NaCl solution", "setting": "[1]", "value": "more salty"}]}
{"compound": "c1ccc2[nH]cnc2c1", "note": "[benzimidazole]", "values": [{"measurement": "taste description versus pure mayonnaise", "setting": "[2]", "value": "clearly more salty with a less sour impression"}, {"measurement": "panel preference in broth", "setting": "[3]; 100 ppm benzimidazole versus 70 ppm 2-(1H-imidazol-4-yl)acetic acid in model broth base", "value": "preferred"}, {"measurement": "taste description versus model broth base", "setting": "[3]; [11]", "value": "more mineral and salty"}, {"measurement": "taste description versus pure ketchup", "setting": "[4]; 70 ppm in ketchup", "value": "clearly more salty"}, {"measurement": "taste description versus 0.3% KCl solution", "setting": "[5]; 100 ppm in 0.3% KCl", "value": "less bitter, less metallic and more salty"}, {"measurement": "taste description versus corn curls without compound", "setting": "[6]; [12]", "value": "saltier, and the rich profile was enhanced"}, {"measurement": "taste description versus 0.3% NaCl solution", "setting": "[1]; 80 ppm in 0.3% NaCl", "value": "clearly more salty with a sour fresh background"}]}
{"compound": "O=C(O)Cc1c[nH]cn1", "note": "[2-(1H-imidazol-4-yl)acetic acid]", "values": [{"measurement": "taste description versus cheese sauce", "setting": "[7]; 50 ppm in cheese sauce", "value": "preferred, having more saltiness and umami character"}, {"measurement": "taste description versus pure mayonnaise", "setting": "[2]", "value": "clearly more salty with a less sour impression"}, {"measurement": "taste description versus model broth base", "setting": "[3]; 70 ppm in model broth base comprising 0.3% NaCl", "value": "more mineral and salty"}, {"measurement": "taste description versus pure ketchup", "setting": "[4]; 100 ppm in ketchup", "value": "clearly more salty, sour lingering and less sweet"}, {"measurement": "panel preference / KCl masker rating", "setting": "[5]; 100 ppm in 0.3% KCl", "value": "preferred over solution C"}, {"measurement": "taste description versus 0.3% KCl solution", "setting": "[5]; 100 ppm in 0.3% KCl", "value": "less bitter, less metallic and more salty"}, {"measurement": "taste description versus corn curls without compound", "setting": "[6]; [12]", "value": "saltier, and the rich profile was enhanced"}, {"measurement": "taste description versus 0.3% NaCl solution", "setting": "[1]; 90 ppm in 0.3% NaCl", "value": "clearly more salty with a minearlic note"}]}
{"compound": "Cc1c[nH]cn1", "note": "[4-methyl-1H-imidazole]", "values": [{"measurement": "taste description versus 0.5% NaCl solution", "setting": "[1]", "value": "more salty"}]}
{"compound": "c1c[nH]cn1", "note": "[1H-imidazole]", "values": [{"measurement": "taste description versus cheese sauce", "setting": "[7]; 70 ppm in cheese sauce", "value": "more mineral and salty"}, {"measurement": "taste description versus pure mayonnaise", "setting": "[2]", "value": "clearly more salty and had a stronger acetic acid character"}, {"measurement": "taste description versus model broth base", "setting": "[3]; [11]", "value": "more mineral and salty as well as more umami"}, {"measurement": "taste description versus potato chips without compound", "setting": "[8]", "value": "higher salty impact and a lingering effect"}, {"measurement": "taste description versus burger without compound", "setting": "[9]", "value": "more salty"}, {"measurement": "taste description versus 0.3% KCl solution", "setting": "[5]; 70 ppm in 0.3% KCl", "value": "less metallic and more salty"}, {"measurement": "taste description versus corn curls without compound", "setting": "[6]; 100 ppm on corn curls with cheese flavor", "value": "saltier, and the rich profile was enhanced"}, {"measurement": "taste description versus savoury model solution", "setting": "[10]", "value": "strong boost of saltiness and umami"}, {"measurement": "taste description versus 0.3% NaCl solution", "setting": "[1]; 100 ppm in 0.3% NaCl", "value": "clearly more salty with a mineralic note, low acidity, some astringency and freshness"}]}
